The assay relates to E. multilocularis metacestodes. Description: PGI-assay: drug-induced damage on in vitro cultured metacestodes (Pathogen Box screening cascade and EC50). The assay is classed as cell-based, Echinococcus multilocularis. To be noted: for PGI release, % of Tx-100 control, average, 5d / PGI release, % of Tx-100 control, average, 12d: confirmatory screening at 10 µM in triplicates, values as % of Tx-100 control; for cytotoxicity at 10 µM: Echinococcus multilocularis.

Where [1] appears, read: 10 µM, singlets, 5 days of incubation.
Setting [2] is: 10 µM, singlets, 12 days of incubation.
Setting [3] is: 120 h, 10 µM, singlets, 5 days of incubation, read-out: PGI release, % of the Tx-100 control, 5d.
[4] abbreviates: 288 h, 10 µM, singlets, 12 days of incubation, read-out: PGI release, % of the Tx-100 control, 12d.

The text below walks through data of article PMC6216040, “Repurposing of an old drug: In vitro and in vivo efficacies of buparvaquone against Echinococcus multilocularis” (International Journal for Parasitology: Drugs and Drug …, 2018).

Read-outs that look alike come from different tables or passages of the source.

`CNc1nnc(Sc2cnn(-c3ccccc3)c(=O)c2Cl)s1` [MMV688763]: the “PGI release, % of the Tx-100 control, 5d” value under setting [1] is recorded as 6.98%. For the same compound, under setting [2], the “PGI release, % of the Tx-100 control, 12d” value was 14.69%.

Regarding `COc1ccc(-c2onc(C(F)(F)F)c2-c2ccc(Cl)cc2)c(O)c1` [MMV688766], under setting [1], the “PGI release, % of the Tx-100 control, 5d” value worked out at 7.61%. Besides, the “PGI release, % of the Tx-100 control, 12d” value under setting [2] is 28.52%. Where the note is “5 days of incubation”, the “PGI release, % of Tx-100 control, average, 5d” value (“PGI release, % … average, 5d” below) is listed as 1.11%. Also, the “PGI release, % of Tx-100 control, average, 12d” value (“PGI release, % … average, 12d” below) (12 days of incubation) is recorded as 0.26%.

For `Cc1[nH]c2ccccc2c1C(c1cccs1)N1CCN(C)CC1` (centres unmarked) [MMV688768], under setting [1], the “PGI release, % of the Tx-100 control, 5d” value turned out to be 19.18%. The “PGI release, % of the Tx-100 control, 12d” value under setting [2] came to 27.24%. The “PGI release, % … average, 5d” value (5 days of incubation) is reported as 5.02%. Also, the “PGI release, % … average, 12d” value (12 days of incubation) is recorded as 7.48%.

On to `Cc1ccccc1C(=O)N1NC(=Nc2ccccc2)SC1(C)C` [MMV688771], for which the “PGI release, % of the Tx-100 control, 5d” value under setting [1] is given as -0.49%. The “PGI release, % of the Tx-100 control, 12d” value under setting [2] is on record as -1.69%.

Turning to `O=C(Cn1ccnc1[N+](=O)[O-])NCc1ccccc1` [MMV688773, Benznidazole, reference compound], the cytotoxicity at 10 µM was -0.2% under setting [3] and 1.37% under setting [4].

With `CC[C@@H]([C@H](C)O)n1ncn(-c2ccc(N3CCN(c4ccc(OC[C@@H]5CO[C@@](Cn6cncn6)(c6ccc(F)cc6F)C5)cc4)CC3)cc2)c1=O` [MMV688774, Posaconazole, reference compound], the cytotoxicity at 10 µM is -0.69% under setting [3] and -1.09% under setting [4].

For the compound `Cc1cccnc1NC(=O)c1cccc(OCc2c(C)noc2C)c1` [MMV688793], under setting [1], the “PGI release, % of the Tx-100 control, 5d” value was -3.90%. In addition, the “PGI release, % of the Tx-100 control, 12d” value under setting [2] is on record as -0.61%.

For the compound `O=C(NCCc1ccn(-c2ccccc2)n1)C1CCCCC1` [MMV688795], the “PGI release, % of the Tx-100 control, 5d” value under setting [1] is on record as 0.14%. In addition, under setting [2], the “PGI release, % of the Tx-100 control, 12d” value is given as -0.21%.

With `O=C(NCc1nnc2n1CCCCC2)c1ccc(-c2ccc(F)cc2)o1` [MMV688796], the “PGI release, % of the Tx-100 control, 5d” value under setting [1] is on record as -0.28%. In addition, the “PGI release, % of the Tx-100 control, 12d” value under setting [2] is reported as -3.38%.

For `CC1CCCCN1C(=O)NCCc1coc(-c2ccc(F)cc2)n1` (centres unmarked) [MMV688797], under setting [1], the “PGI release, % of the Tx-100 control, 5d” value was -3.70%. For the same compound, under setting [2], the “PGI release, % of the Tx-100 control, 12d” value is recorded as -1.62%.

In the case of `CS(=O)(=O)c1ccccc1C(=O)N(Cc1ccccc1)c1ccccc1` [MMV688798], the “PGI release, % of the Tx-100 control, 5d” value under setting [1] is listed as 13.11%. Under setting [2], the “PGI release, % of the Tx-100 control, 12d” value is on record as 63.28%. Also, the “PGI release, % … average, 5d” value (5 days of incubation) was -0.92%. Also, the “PGI release, % … average, 12d” value (12 days of incubation) was -1.65%.

On to `COc1ccc2nccc(NC(=O)C3CCN(CCc4ccc(Cl)cc4)CC3)c2n1` [MMV688844], for which the “PGI release, % of the Tx-100 control, 5d” value under setting [1] is reported as -0.25%. Moreover, the “PGI release, % of the Tx-100 control, 12d” value under setting [2] was -3.99%.

Regarding `O=C(N[C@H](Cc1ccccc1)C(=O)Nc1ccccc1N1CCOCC1)c1cccs1` [MMV688845], the “PGI release, % of the Tx-100 control, 5d” value under setting [1] is listed as 0.55%. Besides, under setting [2], the “PGI release, % of the Tx-100 control, 12d” value is reported as 0.28%.

Take `Cc1ccccc1CN1CCC(O)(c2ccc(Cl)c(C(F)(F)F)c2)CC1` [MMV688846]: the “PGI release, % of the Tx-100 control, 5d” value under setting [1] amounted to 6.92%. In addition, under setting [2], the “PGI release, % of the Tx-100 control, 12d” value is recorded as 5.57%.

Consider `CC(C)(C)n1nc(Cc2ccc(F)c(Cl)c2)c2c(N)ncnc21` [MMV688852], for which the “PGI release, % of the Tx-100 control, 5d” value under setting [1] amounted to 6.41%. Also, the “PGI release, % of the Tx-100 control, 12d” value under setting [2] worked out at 7.25%.

On to `CCOc1ccc2cc(-c3nn(C(C)(C)C)c(N)c3C(N)=O)cnc2c1` [MMV688853], for which, under setting [1], the “PGI release, % of the Tx-100 control, 5d” value is -1.41%. Moreover, the “PGI release, % of the Tx-100 control, 12d” value under setting [2] is on record as -6.45%.

For `CCOc1ccc2cc(-c3nn(CC4CCN(C)CC4)c4ncnc(N)c34)ccc2c1` [MMV688854], the “PGI release, % of the Tx-100 control, 5d” value under setting [1] is -0.71%. Besides, the “PGI release, % of the Tx-100 control, 12d” value under setting [2] is 0.93%.

For `CN1CCN(c2cc(-c3ccc(F)cc3)nc(-c3ccncc3)n2)CC1` [MMV688888], the “PGI release, % of the Tx-100 control, 5d” value under setting [1] is -2.22%. In addition, under setting [2], the “PGI release, % of the Tx-100 control, 12d” value is recorded as 0.59%.

Take `Clc1ccc(CCNc2cc(-c3ccccc3)nc3ncnn23)cc1` [MMV688889]: the “PGI release, % of the Tx-100 control, 5d” value under setting [1] is reported as -3.56%. Moreover, the “PGI release, % of the Tx-100 control, 12d” value under setting [2] was -0.70%.

Take `COc1cc(Br)cc2cc(C(=O)Nc3cccc(C(F)(F)F)c3)c(=O)oc12` [MMV688891]: under setting [1], the “PGI release, % of the Tx-100 control, 5d” value is reported as -4.56%. For the same compound, the “PGI release, % of the Tx-100 control, 12d” value under setting [2] is -1.74%.

Turning to `OC[C@H]1O[C@@H](n2c3ccc(Cl)cc3c3c(-c4cc5ccccc5o4)ncnc32)C(O)[C@H]1O` (some centres unmarked) [MMV688921], the “PGI release, % of the Tx-100 control, 5d” value under setting [1] was -1.03%. The “PGI release, % of the Tx-100 control, 12d” value under setting [2] is recorded as 0.48%.

For the compound `CCc1nn(C)c(C(=O)NCc2ccc(Oc3ccc(C)cc3)cc2)c1Cl` [MMV688934, Tolfenpyrad], the cytotoxicity at 10 µM runs as follows: (120 h, read-out: PGI release, % of the Tx-100 control, 5d) -1.16%; (288 h, read-out: PGI release, % of the Tx-100 control, 12d) 10.3%.

Regarding `O=C(c1ccco1)N(CCCn1ccnc1)c1nc2c(Cl)cccc2s1` [MMV688936], the “PGI release, % of the Tx-100 control, 5d” value under setting [1] is given as -2.60%. Moreover, under setting [2], the “PGI release, % of the Tx-100 control, 12d” value stood at 13.45%.

Turning to `CCOc1ccc(-c2nc(CNCCc3ccc(F)cc3)cs2)cc1` [MMV688938], the “PGI release, % of the Tx-100 control, 5d” value under setting [1] was found to be 2.65%. Besides, under setting [2], the “PGI release, % of the Tx-100 control, 12d” value turned out to be 3.55%.

For `Cc1ccc2nc(C)c(-c3ccn(Cc4ccccc4)n3)n2c1` [MMV688939], the “PGI release, % of the Tx-100 control, 5d” value under setting [1] worked out at 15.20%. The “PGI release, % of the Tx-100 control, 12d” value under setting [2] turned out to be 102.25%. For the same compound, the “PGI release, % … average, 5d” value (5 days of incubation) was 3.21%. Besides, for the setting “12 days of incubation”, the “PGI release, % … average, 12d” value came to 3.18%.

With `COc1cc(CN2CCC3(C=Cc4ccccc43)CC2)cc2c1OCO2` [MMV688941], the “PGI release, % of the Tx-100 control, 5d” value under setting [1] is -0.50%. The “PGI release, % of the Tx-100 control, 12d” value under setting [2] is reported as -0.49%.

Turning to `CC(C)(C)C(O)C(Oc1ccc(-c2ccccc2)cc1)n1cncn1` (centres unmarked) [MMV688942, Bitertanol], the cytotoxicity at 10 µM reads like this: under setting [3], -0.93%; under setting [4], 0.41%.

Turning to `CC1COC(Cn2cncn2)(c2ccc(Oc3ccc(Cl)cc3)cc2Cl)O1` (centres unmarked) [MMV688943, Difenoconazol], the “PGI release, % of the Tx-100 control, 5d” value under setting [1] is on record as -4.96%. In addition, the “PGI release, % of the Tx-100 control, 12d” value under setting [2] is -0.86%.

As for `Cc1cc(NC(=O)c2ccc(Oc3ccc(Cl)cc3O)o2)no1` [MMV688955], under setting [1], the “PGI release, % of the Tx-100 control, 5d” value is listed as -0.20%. For the same compound, the “PGI release, % of the Tx-100 control, 12d” value under setting [2] is reported as -3.41%.

In the case of `CCc1cc(=O)n(C)c(SC(C)C(=O)Nc2ccc(F)cc2)n1` (centres unmarked) [MMV688980], under setting [1], the “PGI release, % of the Tx-100 control, 5d” value is given as -0.26%. Also, under setting [2], the “PGI release, % of the Tx-100 control, 12d” value is 0.88%.

Turning to `[H]/N=C(/N)N[C@H]1[C@H](O)[C@@H](O)[C@H](O[C@@H]2O[C@@H](C)[C@](O)(C=O)[C@H]2O[C@@H]2O[C@@H](CO)[C@H](O)[C@@H](O)[C@@H]2NC)[C@@H](N/C(N)=N\[H])[C@@H]1O` [MMV688994, Streptomycin, reference compound], the cytotoxicity at 10 µM runs as follows: under setting [3], -0.55%; under setting [4], 0.19%.

As to `Cc1ccc(S(=O)(=O)Nc2ccc(CN3CCN(C(=O)c4cccc(C#N)c4)CC3)cc2)cc1` [MMV689028], under setting [1], the “PGI release, % of the Tx-100 control, 5d” value is 0.59%. For the same compound, under setting [2], the “PGI release, % of the Tx-100 control, 12d” value is listed as -0.96%.

With `COc1ccc(S(=O)(=O)Nc2ccc(CN3CCN(C(=O)c4cccc(C#N)c4)CC3)cc2)cc1` [MMV689029], the “PGI release, % of the Tx-100 control, 5d” value under setting [1] is reported as 2.51%. Also, the “PGI release, % of the Tx-100 control, 12d” value under setting [2] is reported as -2.23%.
